Tests used:
NOD mice [1] = experiment: Adoptively transferred diabetes in NOD mice (IS-CD8+ cells); type: in vivo
Protocol: IS-CD8^+ cells were labeled with DiI and then injected in NOD mice. In 24 h, the labeled cells with their intra-islet location were counted in the cryostat sections of the entire pancreas. […] IS-CD8^+ cells were injected in NOD mice. […] PBS containing […] DMSO was used as a vehicle control. The onset of diabetes was monitored daily by measuring urine glucose levels with the Diastix reagent strips. Mice with urine glucose levels of ≧2000 mg/dl for 3 consecutive days were considered diabetic. * and **, p=0.02 and p=0.015 by Fisher's test, respectively.
Mice were monitored for 21 days. […] The onset of diabetes was identified by assessing urine glucose levels with Diastix® strips (Bayer). Mice with urine glucose levels of >2000 mg/dl for 3 consecutive days were considered diabetic. […] The level of glucose in the urine closely follows that in the blood (Traisman, H. S., and Greenwood, R. D. (1973)). The measurement of glucose in urine is a widely accepted method to follow the development of diabetes in NOD mice (Pomerleau, D. P., et al. (2005)).

IS-CD8+ T cells = experiment: Homing of DiI-labeled IS-CD8+ T cells into the pancreatic islets of NOD mice; type: in vivo; settings: 24 h
Protocol: Fluorescent Tracing and Morphometric Analysis—For trafficking studies, IS-CD8^+ T cells were incubated at 1×10^7 cells/ml for 30 min at 37° C. in the dark in complete Click's medium containing 5% fetal calf serum and 0.0075 mg/ml of the fluorescent dye 1,1′-didodecyl-3,3,3′,3′-tetramethylindocarbocyanine perchlorate (DiI; Molecular Probes, Eugene, Oreg.). After incubation, the cells were washed three times with phosphatebuffered saline to remove excess DiI. Labeled IS-CD8^+ cells (1×10^7 cells) were injected intravenously in 0.2 ml of phosphate-buffered saline into irradiated (725 rads, 24 h in advance) NOD mice. Mice were sacrificed 24 h after injection of DiI-labeled cells. The spleen and the pancreata were excised and fixed in 0.1 M periodate-lysine-paraformaldehyde phosphate buffer. The organs were next sucrose-saturated, freeze-molded in OCT compound (Sakura Finetek Inc., Torrance, Calif.), and freeze-sectioned. 7-μm-thick cryostat sections of the entire pancreas were prepared at 60-μm intervals using a Leica CM1900 cryotom. Distribution of DiI-labeled CD8^+ cells within the islets was examined using a fluorescent microscope. At least 100 individual islets per mouse (4-5 mice/experimental group) were examined. The characteristic morphology of the islets is easily identified on the cryosections. DiI-labeled cells were counted within the area relevant to each individual islet (see FIG. 3 for a representative image; the islet-relevant area is depicted by the solid white line, and the islet boundaries are shown by the white dotted line). The position of each IS-CD8^+ labeled cell was determined relative to the islet boundary. The labeled cells localized within the islet boundary were considered to be “inside,” whereas the labeled cells adjacent to the islet but outside of the islet boundary were considered to be “at the entrance.” This method has been described in substantial detail (Savinov, A. Y., et al. (2003), and Savinov, A. Y., et al. (2001), which are herein incorporated by reference in their entirety for their teaching of these methods).
Fluorescent tracing and morphometric analysis—For trafficking studies, IS-CD8^+ T cells were incubated at 1×10^7 cells/ml for 30 min at 37° C. in the dark in the complete Click's medium containing 5% FCS and 0.0075 mg/ml of fluorescent dye 1,1′-didodecyl-3,3,3′,3′-tetramethylindocarbocyanine perchlorate (DiI; Molecular Probes). After incubation, the cells were washed three times with PBS to remove excess DiI. Labeled IS-CD8^+ cells (1×10^7 cells) were intravenously injected in 0.2 ml of PBS into irradiated (725 Rad, 24 h in advance) NOD mice. Mice were sacrificed 24 h after injection of DiI-labeled cells. […] In 24 h, the spleen and the pancreata were excised and fixed in 0.1 M periodate-lysine-paraformaldehyde phosphate buffer. The organs were next sucrose-saturated, freeze-molded in OCT compound (Sakura Finetek Inc.) and freeze-sectioned. 7-μm-thick cryostat sections of the entire pancreas were prepared at the 60 μm intervals using a Leica CM1900 cryotom. Distribution of DiI-labeled CD8^+ cells within the islets was examined using a fluorescent microscope. At least 100 individual islets per mouse, 4-5 mice per each experimental group, were examined. The characteristic morphology of the islets is easily identified on the cryosections. DiI-labeled cells were counted within the area relevant to each individual islet. The position of each IS-CD8^+ labeled cell was determined relative to the islet boundary. […]

MT1-MMP = settings: cited from earlier work
NOD mice [2] = experiment: Spontaneous diabetes in NOD mice, insulin jointly with AG3340; type: in vivo
Protocol: Newly diabetic NOD mice—NOD mice developed diabetes in approximately 5 months after the birth. The onset of spontaneous diabetes was identified by assessing urine glucose levels with Diastix® strips (Bayer). Mice with urine glucose levels >2000 mg/dl for three consecutive days were considered diabetic. […] Injections were continued for 40 days and then mice were sacrificed. Leukocytes and granulated β cells were stained with H&E and aldehyde fuchsin, respectively, in the sections of paraformaldehyde-fixed, paraffin-embedded, pancreata. […] To identify hormone-producing cells the sections were stained with the antibody to insulin (Linco Research, St. Charles, Mo.) and glucagons (DacoCytomation, Carpinteria, Calif.) followed by species-specific secondary horseradish peroxidase-conjugated antibody and a 3,3′-diaminobenzidine substrate.
Insulin injections were then suspended. Mice which after the onset of the disease received insulin became hyperglycemic in a matter of 2-3 days and were then sacrificed according to NIH guidelines.

[3] = AG3340 1 mg/kg i.p. with insulin, 40 days

## CC1(C)SCCN(S(=O)(=O)c2ccc(Oc3ccncc3)cc2)[C@H]1C(=O)NO [AG3340]
NOD mice [1]; Example 1: cells co-incubated with AG3340, 1 mg/kg i.p. on days 0, 2, 4, 6, 8, 10
  delay of the onset of diabetes compared with the control: ~2 fold
NOD mice [1]; Example 3: 1 mg/kg i.p. 30 min prior to cells, then every other day
  delay of the onset of diabetes compared to the control: approximately 2 fold
IS-CD8+ T cells; Example 1: cells co-incubated 2 h with AG3340 50 μM before injection
  IS-CD8+ cells found inside the islets: smaller number of cells
IS-CD8+ T cells; Example 2: AG3340 1 mg/kg i.v. 30 min before cells
  reduction in the T cell homing: 50%
IS-CD8+ T cells; Example 3: inhibitor i.p. before cells, SB-3CT and EGCG at much higher concentrations than AG3340
  homing of IS-CD8+ cells inside the islets: several-fold less cells
MT1-MMP
  Ki for MT1-MMP: sub-nanomolar
NOD mice [2]; [3]
  islet regeneration in the pancreatic parenchyma: de novo formation of the islet-like structures
  number of the intact islets and the islets with limited peri-islet insulitis: increase
NOD mice [2]; insulin jointly with AG3340 for 40 days, then no external insulin
  glycemia after insulin injections were suspended: normoglycemic/mildly hyperglycemic for several weeks
NOD mice [2]; insulin s.c. jointly with AG3340 1 mg/kg i.p. every two-three days, 40 days
  severity of insulitis compared to the control: significant and promising reduction
NOD mice [2]; short-term treatment, AG3340 1 mg/kg i.p. with insulin, 40 days
  return of overtly diabetic mice to normoglycemia: not sufficient

— patent publication US20070203244A1, “INHIBITORS OF MEMBRANE TYPE-1 MATRIX METALLOPROTEINASE FOR THE TREATMENT OF INSULIN-DEPENDENT DIABETES MELLITUS” (priority 2006, published 2007)
